Columns and labels:
CHO-M cells [1] = experiment: CHO-M growth in vitamin-depleted B-CDmin medium complemented with lower concentrations of each vitamin; format: cell-based, Chinese hamster
Protocol: Cells (5000 cells/ml) were transferred into 150 μl media with different concentrations of vitamin B1, B5 or H (from 0 to 1×, see Table 2). 96 well-plates were used and growth was measured after 9 days of culture, by measuring the OD at 600 nm. Hatched (forward-leaning), dotted dark and hatched (backward-leaning) bars indicate modulation of B1, B5 and H concentrations, respectively.
The depleted B-CDmin medium was complemented with lower concentration of each vitamin separately, to determine the contrations range limiting CHO-M growth.
Suspension Chinese hamster ovary cells (CHO-M) were maintained in suspension culture in SFM4CHO-M Hyclone serum-free medium (SFM, ThermoScientific™) supplemented with L-glutamine (PAA, Austria) and HT supplement (GIBCO, INVITROGEN LIFE SCIENCES) at […], 5% CO2 in humidified air. Other cell media used for these experiments are the BalanCD CHO-M Growth A (B-CDfull; Irvine Scientific), and the Deficient BalanCD CHO-M Growth A (B-CDmin; Irvine Scientific), supplemented with vitamin B1 (thiamine Hydrochloride; SIGMA ALDRICH), vitamin B5 (Calcium DL-Pantothenate; TCI) and vitamin H (Biotin, SIGMA ALDRICH)

CHO-M cells [2] = experiment: CHO-M growth in B-CDmin medium supplemented with various concentrations of B5 and H; format: cell-based, Chinese hamster; conditions: B5 in 10× excess with low H (10×B5; 10^−4×H), 6 days of culture
Protocol: Cells were seeded at 20000 cells/ml into 500 μl of B-CD min media supplemented with the indicated amounts of vitamin B5 and H, and with B1 (1×). A 24 well-plate was used and growth was measured after 6 days of culture by measuring viable cell density.

## O=C(O)CCCC[C@@H]1SC[C@@H]2NC(=O)N[C@@H]21 [H, Biotin]
CHO-M cells [1]; H at low concentration (10^−5×)
  cell density versus full medium: slightly higher
CHO-M cells [1]; absolute concentration as printed, CHO-M, 9 days of culture
  limiting concentration: < 5 µM
CHO-M cells [1]; relative to standard concentration (1×: B1 7.5 μM, B5 2.5 μM, H 0.5 μM), CHO-M, 9 days of culture
  growth-limiting concentration range: lower than 10^−5 ×

## Calcium DL-Pantothenate [B5]
CHO-M cells [1]; relative to standard B5 concentration (1× = 2.5 μM)
  concentration allowing normal culture growth: ≥ 10^−2 ×
CHO-M cells [2]
  untransformed cell growth relative to complete medium (1×B5; 10^−4×H): strongly inhibited
